In brackets after ≈: the same amount, converted by molar mass. Activity calls are given as the source filed them. The calls are words filed in the database; no cut-off is given here.
Assays:
Staphylococcus aureus = assay: Antimicrobial activity against Staphylococcus aureus ATCC 6538; format: functional
Escherichia coli = assay: Antimicrobial activity against Escherichia coli CECT99; format: functional, organism-based
Salmonella typhimurium = assay: Antimicrobial activity against sSalmonella Typhimurium UBC1; format: functional, organism-based; conditions: Salmonella enterica subsp. enterica serovar Typhimurium
Bacillus subtilis = assay: Antimicrobial activity against Bacillus subtilis CECT39; format: functional
Candida albicans = assay: Antimicrobial activity against Candida albicans UBC2; format: functional, organism-based

In the case of `COC(=O)[C@@]1(C)C[C@@H]2[C@](C)(CC1=O)C[C@H](O)[C@]1(C)C3=CC=C4C(=CC(=O)C(O)=C4C)[C@]3(C)CC[C@@]21C`, the MIC (Staphylococcus aureus) is reported as 5 µg/mL (≈ 10.1 µM), the Activity (Escherichia coli) is reported as “inactive” and the Activity (Salmonella typhimurium) is reported as “inactive”. For the same compound, the MIC (Bacillus subtilis) was 1.25 µg/mL (≈ 2.53 µM) and the Activity (Candida albicans) was “inactive”.

Reference: ChEMBL document CHEMBL1141847, “A new antibiotic nortriterpene quinone methide from Maytenus catingarum” (1999)
